Drawing on US20220024921A1, “1,3,4-OXADIAZOLONE COMPOUND AND PHARMACEUTICAL” (NIPPON SHINYAKU CO., LTD., priority 2018, published 2022), this text covers GI50, IC50 and inhibition in vivo for two compounds.

Test [1] addresses PIM1 transgenic cells (Ba/F3) (Homo sapiens, UniProt P11309). In words: Proliferation inhibitory effect on PIM1 transgenic cells. Format: cell-based, mouse. The settings on record: proliferation inhibition, 72 hours, Cell Counting Kit-8, read-out: PIM1 IC50. The procedure, abridged: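 Mouse Ba/F3 pro-B cells were retrovirally transduced with human PIM1 so that their proliferation depends on PIM1. Cells were treated with compound at 1–10000 nM final for 72 h, then read by CCK-8 (OD450−OD650). Inhibition was set against DMSO (0%) and no-cell blank (100%), and IC50 was obtained by two-parameter logistic regression.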
(In general: Tetrazolium dyes change colour on reduction, which living cells bring about.)

In test [2] the target is T1, PIM1 serine/threonine kinase (Homo sapiens, UniProt P11309).
T1 construct: purchased Carna Bioscience, Inc
The experiment in a line: PIM1 serine/threonine kinase inhibitory effect. Format: biochemical. The settings on record: PIM1 serine/threonine kinase activity; ATP 40 μM; 30° C., 30 minutes. The essentials: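 Recombinant PIM1 (0.15 μg/ml final) with 0.5 μM biotinylated substrate and 40 μM ATP in pH 7.0 HEPES/MgCl2 buffer, 30 min at 30° C. Compound range was 0.01–10000 nM final, n=2. HTRF detection with streptavidin-XL665 and anti-phospho antibody-cryptate, 1 h; IC50 from non-linear regression of the 665/620 ratio.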

Test [3] has as its target PIM3 transgenic cells (Ba/F3) (Homo sapiens, UniProt Q86V86). The experiment in a line: Proliferation inhibitory effect on PIM3 transgenic cells. Format: cell-based, mouse. The settings on record: proliferation inhibition, 72 hours, Cell Counting Kit-8, read-out: PIM3 IC50. An excerpt: (§1) Human PIM1, 2, and 3 genes were inserted into the multi-cloning sites of retrovirus expression vectors pMYs-IRES-GFP, respectively, to prepare gene transfer vectors. Then, each gene transfer vector was introduced into packaging cells PLAT-E derived from a human fetal kidney cell line in the logarithmic growth phase, using a transfection reagent (FuGENE6, Promega Corporation). Since the culture supernatant of PLAT-E after gene transfer contained virus particles for gene transfer, the culture supernatant was collected and used as a medium for gene transfer. The medium for gene transfer was added to a plate coated with RetroNectin, and the plate was incubated to attach the virus particles to the plate. Then, a mouse pro-B cell line Ba/F3 in the logarithmic growth phase was seeded on the plate and infected with the virus to prepare PIM1, 2, or 3 transgenic cells that proliferate in a PIM 1, 2, or 3-dependent manner. The expression of PIM1, 2, or 3 protein in each cell was confirmed by Western blotting.
(§2) Each test substance was prepared to 10 mM with dimethylsulfoxide (DMSO), and diluted with DMSO so as to have concentrations of 3000, 1000, 300, 100, 30, 10, 3, and 1 μM. Moreover, each dilution was further diluted 10-fold with distilled water to prepare a test substance solution.
(§3) PIM1, 2, 3-expressing cells were seeded on a 96-well plate, and each test substance solution prepared the next day was added such that final concentrations were 10000, 3000, 1000, 300, 100, 30, 10, 3, and 1 nM. 72 hours after the addition, 10 μL of Cell Counting Kit-8 (DOJINDO LABORATORIES) was added to each well. After incubation for 1 to 4 hours, absorbance OD450 at 450 nm was measured. In addition, absorption OD650 at 650 nm as a reference wavelength was measured.
(§4) OD450-OD650 for each condition was calculated, and then the inhibition rates when OD450-OD650 of negative control (DMSO only) and OD450-OD650 of Blank (without cells) were set to 0% and 100%, respectively, were calculated. Then, non-linear regression analysis was performed for logarithmic dose and inhibition rate using a two-parameter logistic model to estimate IC50 values.
(§5) For the compounds with the following Example numbers, in addition to the above proliferation inhibitory effect on PIM1 transgenic cells, the proliferation inhibitory effect on PIM2 transgenic cells and the proliferation inhibitory effect on PIM3 transgenic cells were calculated as IC50.

In test [4] the target is PIM2 transgenic cells (Ba/F3) (Homo sapiens, UniProt Q9P1W9). The experiment in a line: Proliferation inhibitory effect on PIM2 transgenic cells. Format: cell-based, mouse. The conditions noted are these: proliferation inhibition, 72 hours, Cell Counting Kit-8, read-out: PIM2 IC50.
Description: as §1, §2, §3, §4, §5

Test [5] relates to graft-versus-host disease model CB6F1 mice. In words: Lymphocyte proliferation inhibitory effect using graft-versus-host disease model animals (splenomegaly formation). In kind it is in vivo. The conditions noted are these: Mus musculus, 240 h, oral, twice a day for 10 days, GVHD model CB6F1 mice, read-out: Inhibition rate (%) (splenomegaly formation).
The test system is the same in test [6]. The description is as above. In kind it is in vivo. The settings on record: Mus musculus, 240 h, single dose 100 mg/kg, oral, twice a day for 10 days, GVHD model CB6F1 mice, read-out: Inhibition rate (%) (splenomegaly formation).
The target of test [7] is T2, PIM2 serine/threonine kinase (Homo sapiens, UniProt Q9P1W9).
T2 construct: purchased Carna Bioscience, Inc
In words: PIM2 serine/threonine kinase inhibitory effect. In kind it is biochemical. The settings on record: PIM2 serine/threonine kinase activity; ATP 2 μM; 30° C., 30 minutes. The method, then:
(§6) Each test substance was prepared to 10 mM with dimethylsulfoxide (DMSO), and further diluted with DMSO so as to have concentrations of 1000, 300, 100, 30, 10, 3, 1, 0.3, 0.1, 0.03, 0.01, and 0.001 μM. Moreover, each dilution was further diluted 33.3-fold with an assay buffer to prepare a test substance solution. The composition of the assay buffer was 50 mM HEPES (pH 7.0), 0.02% NaN3, 0.01% Bovine Serum Albumin, 0.1 mM Orthovanadate, 1 mM Dithiothreitol, and 5 mM MgCl2.
(§7) 5 μL of each test substance solution was added to 384-well plates (n=2), and then 2.5 μL of a substrate solution (substrate 3-biotin (Cisbio Bioassays SAS), final concentration in the reaction solution: 0.5 μM) and 2.5 μL of an ATP solution (in the cases of PIM1, 2, 3, the final concentrations in the reaction solutions were 40, 2, and 10 μM, respectively) were added, 5 μL of each of PIM1, 2, 3 serine/threonine kinase solutions (Carna Bioscience, Inc., the final concentrations in the reaction solutions were 0.15, 1.6, and 0.25 μg/ml, respectively) was finally added, and the mixture was reacted at 30° C. for 30 minutes. The test substance concentrations in the reaction solutions are 10000, 3000, 1000, 300, 100, 30, 10, 3, 1, 0.3, 0.1, and 0.01 nM.
(§8) Thereafter, 15 μL of each detection solution (62.5 nM Streptavidin-XL665 (Cisbio Bioassays SAS), […] STK antibody-Cryptate (Cisbio Bioassays SAS), 50 mM HEPES (pH 7.0), 0.8 M KF, 0.1% Bovine Serum Albumin, 20 mM ethylenediaminetetraacetic acid) was added to each well. After stirring, the mixture was reacted at 30° C. for 1 hour. Absorbance (OD620, OD665) at 620 and 665 nm was measured with a microplate reader (SpectraMax M5e, Molecular Devices, LLC).
(§9) Non-linear regression analysis was performed by an SAS system (SAS Institute Inc.) using the ratio (OD665/OD620) of the measured absorbance to calculate a test substance concentration (IC50) that inhibits PIM1 serine/threonine kinase activity by 50%.
(§10) For the compounds with the following Example numbers, in addition to the above PIM1 serine/threonine kinase activity (IC50), test substance concentrations (IC50) that inhibit PIM2 serine/threonine kinase activity and PIM3 serine/threonine kinase activity by 50% were calculated.

Test [8] deals with T3, PIM3 serine/threonine kinase (Homo sapiens, UniProt Q86V86).
T3 construct: purchased Carna Bioscience, Inc
In words: PIM3 serine/threonine kinase inhibitory effect. In kind it is biochemical. The conditions noted are these: PIM3 serine/threonine kinase activity; ATP 10 μM; 30° C., 30 minutes. As to the method: as §6, §7, §8, §9, §10

Structures are written as SMILES. Counter-ions that a name gives are not always drawn.

Sequence of PIM2 transgenic cells (Ba/F3) (Q9P1W9 whole entry, change not shown): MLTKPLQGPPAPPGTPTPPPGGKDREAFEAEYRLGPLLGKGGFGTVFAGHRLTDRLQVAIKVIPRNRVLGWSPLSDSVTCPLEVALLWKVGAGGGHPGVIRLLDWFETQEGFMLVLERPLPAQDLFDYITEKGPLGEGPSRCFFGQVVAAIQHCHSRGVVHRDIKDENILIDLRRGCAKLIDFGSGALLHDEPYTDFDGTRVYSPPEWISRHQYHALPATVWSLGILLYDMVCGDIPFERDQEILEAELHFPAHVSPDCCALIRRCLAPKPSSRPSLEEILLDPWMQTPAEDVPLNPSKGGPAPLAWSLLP
Sequence of PIM1 transgenic cells (Ba/F3) (P11309 whole entry, stated change not applied): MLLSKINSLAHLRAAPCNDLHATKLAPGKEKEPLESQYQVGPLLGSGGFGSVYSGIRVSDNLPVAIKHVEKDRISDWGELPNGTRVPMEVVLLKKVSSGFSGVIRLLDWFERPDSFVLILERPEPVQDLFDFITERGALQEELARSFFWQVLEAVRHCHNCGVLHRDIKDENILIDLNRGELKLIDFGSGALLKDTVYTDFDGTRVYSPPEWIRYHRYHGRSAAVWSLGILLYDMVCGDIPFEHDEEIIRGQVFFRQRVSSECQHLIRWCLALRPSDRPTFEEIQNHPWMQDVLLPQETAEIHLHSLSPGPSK
T1 sequence (P11309 whole entry): as the sequence (P11309 whole entry, stated change not applied) above
T2 sequence (Q9P1W9 whole entry): as the sequence (Q9P1W9 whole entry, change not shown) above

With `C[C@H](Nc1cc(-c2n[nH]c(=O)o2)ccc1C(F)(F)F)C1CCNCC1` [Example 58, 5-[3-{[(1S)-1-(piperidin-4-yl)ethyl]amino}-4-(trifluoromethyl)phenyl]-1,3,4-oxadiazol-2(3H)-one hydrochloride], the GI50 is 33 nM in test [1], 570 nM in test [3] and 3600 nM in test [4]. In addition, the IC50 was 2 nM in test [2], 18 nM in test [7] and 16 nM in test [8]. In addition, in test [5] (single dose 25 mg/kg), the inhibition in vivo at 25 mg/kg was 19%. Besides, in test [5] (single dose 50 mg/kg), the inhibition in vivo at 50 mg/kg is 41.6%. For the same compound, in test [6], the inhibition in vivo at 100 mg/kg is 39.8%.

For `CC[C@@H]1CNCC[C@@H]1[C@H](C)Nc1cc(-c2n[nH]c(=O)o2)cc(F)c1C(F)(F)F` [Example 225, 5-[3-({(1S)-1-[(3S,4S)-3-ethylpiperidin-4-yl]ethyl}amino)-5-fluoro-4-(trifluoromethyl)phenyl]-1,3,4-oxadiazol-2(3H)-one], the GI50 came to 7.6 nM in test [1], 51 nM in test [3] and 390 nM in test [4]. Besides, the midpoint of inhibition in test [2], the IC50, lay at 1.1 nM. The inhibition in vivo at 3 mg/kg in test [5] (single dose 3 mg/kg) worked out at 18.9%. In addition, the inhibition in vivo at 10 mg/kg in test [5] (single dose 10 mg/kg) was 32.3%.

The term IC50 denotes the concentration needed to halve the response being measured. High values mean a need for much substance, low ones inhibition by little substance.
